The target of one data set is Human kallikrein 2 (Homo sapiens, UniProt P20151). Conditions: reference 2; read-out: Affinity IC50; cited from earlier work.
The target in another data set is DNase II. Particulars: reference 12; read-out: Affinity K1; cited from earlier work.
In data set [1] the test system is thrombin generation in human plasma. Description: Contact activation in human plasma: thrombin activation time triggered by actin. The class given is biochemical. Particulars: for thrombin formation in human plasma: 50 nM inhibitor concentration.
The conditions of data set [2]: in vivo; cited from earlier work.
The test system of data set [3] is factor XIIa and plasma kallikrein in human plasma. Description: Activation of factor XIIa and plasma kallikrein in human plasma after kaolin (H-D-Pro-Phe-Arg-pNA). Format: biochemical. Conditions: for IC50: human plasma, kaolin, read-out: inhibitor concentration required to reduce factor XIIa activity by 50%. How it is done: (§1) Normal human plasma from single donors was purchased from 3H Biomedical (Uppsala, Sweden). The plasma was centrifuged at 1500×g at 20° C. for 15 minutes to obtain platelet-poor plasma (PPP). Aliquots of the PPP were stored in polypropylene tubes at −80° C. […] Activation of factor XIIa and human plasma kallikrein were measured as follows. 2 μg kaolin was added to the plasma samples, mixed well and incubated for 20 minutes at 37° C. The samples were diluted 250-fold in 50 mM Tris-Cl pH 7.8, 150 mM NaCl. Plasma kallikrein-like activity was measured with the chromogenic substrate H-D-Pro-Phe-Arg-pNA (100 μM; Bachem, Bubendorf, Switzerland) using an absorption plate reader (absorption at […]; Molecular Devices, Sunnyvale, Calif., USA).
as §1, with “was” for “and human plasma kallikrein were”, “μg of” for “μg”, “H-D-Pro-Phe-Arg (SEQ ID No. 37)-pNA” for “H-D-Pro-Phe-Arg-pNA”, “USA). The same chromogenic substrate is also recognized and modified by plasma kallikrein.” for “USA).”

In a further data set the target is T1, human thrombin (Homo sapiens, UniProt P00734).
T1 construct: the activity of human thrombin (2 nM; Innovative Research, Southfiled, Mich., USA); purchased Innovative Research (Southfiled, Mich., USA)
Description: Specificity measurement, thrombin. Format: biochemical. Particulars: highest concentration tested 10 μM.

The target in the next data set is T2, mouse plasma kallikrein (Mus musculus, UniProt P26262).
T2 construct: purchased R&D Systems (Minneapolis, Minn., USA)
In words: Specificity measurement, mouse plasma kallikrein. Format: biochemical. Particulars: highest concentration tested 10 μM. How it is done:
(§2) Recombinant mouse plasma kallikrein from R&D Systems (Minneapolis, Minn., USA) with a signal peptide was proteolytically activated with 0.5 mg/ml thermolysin at 37° C. for 1 hr. […] Inhibitor hydrolysed in one binding loop was generated by incubation of TBMB modified peptide PK15 with human plasma kallikrein at a molar ration of 5:1 for 24 hours at 37° C. and subsequent heat inactivation of the enzyme at 60° C. (30 min). Apparent Ki values were calculated according to the Cheng and Prusoff equation (Cheng, Y. and Prusoff, W. H., Biochem. Pharmacol., 1973).
(§3) Recombinant mouse plasma kallikrein from R&D Systems (Minneapolis, Minn., USA) with a signal peptide was proteolytically activated with 0.5 mg/ml thermolysin at 37° C. for 1 hr. […] Inhibitor hydrolysed in one binding loop was generated by incubation of TBMB modified peptide PK15 with human plasma kallikrein at a molar ratio of 5:1 for 24 hours at 37° C. and subsequent heat inactivation of the enzyme at 60° C. (30 min). Apparent Ki values were calculated according to the Cheng and Prusoff equation.

A further data set concerns the target T3, factor XIa (Homo sapiens, UniProt P03951).
T3 construct: factor XIa (0.8 nM; Innovative Research, Southfiled, Mich., USA); purchased Innovative Research (Southfiled, Mich., USA)
Description: Specificity measurement, factor XIa. The class given is biochemical. Particulars: highest concentration tested 10 μM.

Data set [4] concerns the target T4, plasma kallikrein (Homo sapiens, UniProt P03952). Description: Hydrolysis of the inhibitor on incubation with human plasma kallikrein. The class given is in vitro ADME. Set-up: purchased Innovative Research (Southfiled, Mich., USA). As for the experimental part: as §2, §3
Data set [5] concerns the target T4, plasma kallikrein. Description: Activity measurement of chemically synthesized human plasma kallikrein inhibitors (residual activity, Z-Phe-Arg-AMC). Particulars: for IC50: synthetic peptide after modification with TBMB, human plasma kallikrein 0.1 nM, read-out: IC50 (nM) Bi-cyclic peptide. The class given is biochemical. Set-up: purchased Innovative Research (Southfiled, Mich., USA). How it is done:
as §2, §3

The next data set concerns the target ErbB-2 (Homo sapiens, UniProt P04626). Conditions: reference 8; read-out: Affinity K1; cited from earlier work.
The target of a further data set is T5, Pancreatic lipase (Sus scrofa, UniProt P00591).
T5 sequence (P00591 1-450): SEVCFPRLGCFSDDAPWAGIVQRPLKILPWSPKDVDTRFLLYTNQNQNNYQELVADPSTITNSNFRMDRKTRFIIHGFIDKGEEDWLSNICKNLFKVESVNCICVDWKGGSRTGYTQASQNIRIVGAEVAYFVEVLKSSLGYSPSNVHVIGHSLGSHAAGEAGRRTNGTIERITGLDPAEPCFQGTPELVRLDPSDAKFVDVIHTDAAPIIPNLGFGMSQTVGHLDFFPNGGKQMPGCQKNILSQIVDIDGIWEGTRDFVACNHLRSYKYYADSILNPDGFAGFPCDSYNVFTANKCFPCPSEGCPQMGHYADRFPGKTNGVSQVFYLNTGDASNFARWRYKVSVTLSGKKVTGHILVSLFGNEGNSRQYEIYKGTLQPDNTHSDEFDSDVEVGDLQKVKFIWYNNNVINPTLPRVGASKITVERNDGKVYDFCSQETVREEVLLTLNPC
Particulars: reference 10; read-out: Affinity IC50; cited from earlier work.

Data set [6] deals with Angiotensin converting enzyme 2 (ACE2) (Homo sapiens, UniProt Q9BYF1). Conditions: reference 7; read-out: Affinity K1; cited from earlier work.
Another data set concerns the target TF-fVII (Homo sapiens, UniProt P08709). Particulars: reference 6; read-out: Affinity IC50; cited from earlier work.
In another data set the target is Beta-lactamase (Stenotrophomonas maltophilia, UniProt P52700). Conditions: reference 11; read-out: Affinity IC50; cited from earlier work.
A further data set addresses Chymotrypsin (Bos taurus, UniProt P00766). Particulars: reference 5; read-out: Affinity K1; cited from earlier work.
The target in data set [7] is Urokinase-type plasminogen activator (uPA) (Mus musculus, UniProt P06869). Conditions: reference 4; read-out: Affinity K1; cited from earlier work.
Data set [8] concerns the target Urokinase-type plasminogen activator (uPA) (Homo sapiens, UniProt P00749). Particulars: reference 3; read-out: Affinity K1; cited from earlier work.
In a further data set the target is Urease (Helicobacter pylori, UniProt P14916+P69996). Conditions: read-out: Affinity IC50; reference 9; cited from earlier work.

These results are taken from patent publication US9657288B2, “Connector compound peptide phage display” (BICYCLE THERAPEUTICS LIMITED, priority 2008, dated 2017).

*1 amine or outer side, *2 acyl side, *3 side chain or, on linkers, in order; H or OH if unused. Where a SMILES comes first, the peptide text is derived from it. Bridges are numbered along the chain shown (N, C = ends). TBMB = c1c(C[*:1])cc(C[*:3])cc1C[*:2]

T4 sequence (P03952 391-638 limits assumed): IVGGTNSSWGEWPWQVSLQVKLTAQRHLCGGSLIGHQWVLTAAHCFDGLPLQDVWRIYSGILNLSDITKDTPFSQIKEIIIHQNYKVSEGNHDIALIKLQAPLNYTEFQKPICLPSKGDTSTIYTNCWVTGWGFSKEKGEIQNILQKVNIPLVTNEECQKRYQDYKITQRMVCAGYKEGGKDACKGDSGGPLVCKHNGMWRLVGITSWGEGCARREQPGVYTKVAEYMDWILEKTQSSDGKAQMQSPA
T4 sequence (P03952 20-390 partner limits assumed): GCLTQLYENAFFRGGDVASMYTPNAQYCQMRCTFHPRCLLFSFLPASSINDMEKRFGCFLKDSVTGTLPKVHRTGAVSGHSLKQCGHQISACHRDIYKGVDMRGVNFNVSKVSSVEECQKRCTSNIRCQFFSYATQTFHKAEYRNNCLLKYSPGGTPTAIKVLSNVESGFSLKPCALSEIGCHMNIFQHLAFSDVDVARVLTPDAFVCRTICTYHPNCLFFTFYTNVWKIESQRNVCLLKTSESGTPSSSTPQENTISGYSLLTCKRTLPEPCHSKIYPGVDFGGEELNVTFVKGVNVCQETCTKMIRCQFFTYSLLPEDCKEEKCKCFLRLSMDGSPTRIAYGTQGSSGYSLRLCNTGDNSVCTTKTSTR
Sequence of Beta-lactamase (P52700 34-290): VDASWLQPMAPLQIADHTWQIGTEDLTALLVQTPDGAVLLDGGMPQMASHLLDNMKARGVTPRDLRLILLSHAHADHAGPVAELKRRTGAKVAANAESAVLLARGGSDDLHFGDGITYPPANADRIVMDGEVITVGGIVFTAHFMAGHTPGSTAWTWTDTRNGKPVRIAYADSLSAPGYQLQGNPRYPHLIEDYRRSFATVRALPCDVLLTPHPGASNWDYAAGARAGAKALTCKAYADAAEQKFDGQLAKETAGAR
Sequence of Urokinase-type plasminogen activator (uPA) (Mus musculus, UniProt P06869) (P06869 21-433): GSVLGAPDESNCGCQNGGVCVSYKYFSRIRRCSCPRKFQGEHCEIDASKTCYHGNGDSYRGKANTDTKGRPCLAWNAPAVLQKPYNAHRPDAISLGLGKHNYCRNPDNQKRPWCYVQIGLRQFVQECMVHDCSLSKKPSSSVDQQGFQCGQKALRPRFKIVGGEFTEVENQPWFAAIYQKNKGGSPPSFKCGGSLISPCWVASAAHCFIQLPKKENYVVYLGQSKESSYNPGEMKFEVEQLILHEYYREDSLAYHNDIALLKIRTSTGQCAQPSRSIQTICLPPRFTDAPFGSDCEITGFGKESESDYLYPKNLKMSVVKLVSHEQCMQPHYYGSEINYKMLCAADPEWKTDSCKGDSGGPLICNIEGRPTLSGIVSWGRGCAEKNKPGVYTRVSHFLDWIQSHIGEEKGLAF
T3 sequence (P03951 388-625 limits assumed): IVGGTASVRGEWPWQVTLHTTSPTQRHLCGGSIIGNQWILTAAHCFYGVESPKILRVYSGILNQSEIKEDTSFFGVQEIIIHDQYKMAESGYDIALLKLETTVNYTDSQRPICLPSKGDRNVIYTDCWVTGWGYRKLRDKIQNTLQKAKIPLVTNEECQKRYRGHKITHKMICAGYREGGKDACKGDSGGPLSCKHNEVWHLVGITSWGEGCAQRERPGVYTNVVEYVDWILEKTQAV
T3 sequence (P03951 19-387 partner limits assumed): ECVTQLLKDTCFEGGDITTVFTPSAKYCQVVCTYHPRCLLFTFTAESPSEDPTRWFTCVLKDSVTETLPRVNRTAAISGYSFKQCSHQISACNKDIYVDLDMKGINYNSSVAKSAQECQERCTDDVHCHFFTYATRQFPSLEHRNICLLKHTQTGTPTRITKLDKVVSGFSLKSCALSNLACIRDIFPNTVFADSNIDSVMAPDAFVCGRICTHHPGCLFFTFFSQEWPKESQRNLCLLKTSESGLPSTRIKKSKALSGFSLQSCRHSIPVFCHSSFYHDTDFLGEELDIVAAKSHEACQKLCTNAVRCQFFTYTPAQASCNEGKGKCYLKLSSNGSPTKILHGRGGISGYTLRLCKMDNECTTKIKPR
Sequence of Urease (P69996 whole entry): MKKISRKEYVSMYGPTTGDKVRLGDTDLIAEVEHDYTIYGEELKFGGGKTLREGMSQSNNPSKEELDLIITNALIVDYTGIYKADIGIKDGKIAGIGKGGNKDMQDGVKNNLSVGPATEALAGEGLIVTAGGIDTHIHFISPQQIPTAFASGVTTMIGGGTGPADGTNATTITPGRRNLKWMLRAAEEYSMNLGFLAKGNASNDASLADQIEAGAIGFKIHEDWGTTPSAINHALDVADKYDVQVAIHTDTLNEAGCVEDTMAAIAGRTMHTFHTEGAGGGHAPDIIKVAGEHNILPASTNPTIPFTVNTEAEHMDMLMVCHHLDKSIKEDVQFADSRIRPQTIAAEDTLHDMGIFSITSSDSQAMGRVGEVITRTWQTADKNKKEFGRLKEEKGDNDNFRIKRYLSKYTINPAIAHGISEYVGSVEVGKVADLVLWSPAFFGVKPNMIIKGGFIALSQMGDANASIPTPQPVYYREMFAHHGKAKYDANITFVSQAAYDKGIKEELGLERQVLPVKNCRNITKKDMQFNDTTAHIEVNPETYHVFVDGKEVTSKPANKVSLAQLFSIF
Sequence of Urease (P14916 whole entry): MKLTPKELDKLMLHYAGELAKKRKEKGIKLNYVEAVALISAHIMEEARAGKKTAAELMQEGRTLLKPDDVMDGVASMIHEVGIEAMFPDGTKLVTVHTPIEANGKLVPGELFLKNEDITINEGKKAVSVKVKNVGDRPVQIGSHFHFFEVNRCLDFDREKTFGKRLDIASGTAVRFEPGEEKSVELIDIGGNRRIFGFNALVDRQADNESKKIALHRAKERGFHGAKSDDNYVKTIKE
T2 sequence (P26262 391-638 limits assumed): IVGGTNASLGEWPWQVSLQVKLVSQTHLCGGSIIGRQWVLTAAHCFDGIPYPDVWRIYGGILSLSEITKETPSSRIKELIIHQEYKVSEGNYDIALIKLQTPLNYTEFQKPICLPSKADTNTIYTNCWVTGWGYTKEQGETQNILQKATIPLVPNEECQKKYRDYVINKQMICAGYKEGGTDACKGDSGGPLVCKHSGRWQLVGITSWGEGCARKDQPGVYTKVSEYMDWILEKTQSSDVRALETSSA
T2 sequence (P26262 20-390 partner limits assumed): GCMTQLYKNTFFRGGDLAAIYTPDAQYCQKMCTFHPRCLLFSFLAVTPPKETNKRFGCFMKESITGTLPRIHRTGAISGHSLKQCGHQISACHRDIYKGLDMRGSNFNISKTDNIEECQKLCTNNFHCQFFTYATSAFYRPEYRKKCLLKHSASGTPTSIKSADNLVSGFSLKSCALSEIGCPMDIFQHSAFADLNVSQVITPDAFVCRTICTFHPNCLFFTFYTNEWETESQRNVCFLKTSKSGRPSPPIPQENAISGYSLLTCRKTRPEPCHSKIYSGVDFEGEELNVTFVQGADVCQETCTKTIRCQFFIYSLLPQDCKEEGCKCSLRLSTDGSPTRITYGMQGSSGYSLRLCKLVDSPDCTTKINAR
Sequence of TF-fVII (P08709 213-466 limits assumed): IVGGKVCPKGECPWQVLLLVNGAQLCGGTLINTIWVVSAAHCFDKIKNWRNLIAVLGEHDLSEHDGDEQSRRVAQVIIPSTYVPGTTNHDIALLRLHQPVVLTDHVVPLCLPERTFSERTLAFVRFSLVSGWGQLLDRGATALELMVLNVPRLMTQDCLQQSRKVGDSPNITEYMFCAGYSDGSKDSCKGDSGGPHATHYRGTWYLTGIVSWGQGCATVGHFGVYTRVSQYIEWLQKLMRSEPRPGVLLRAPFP
Sequence of TF-fVII (P08709 61-212 partner limits assumed): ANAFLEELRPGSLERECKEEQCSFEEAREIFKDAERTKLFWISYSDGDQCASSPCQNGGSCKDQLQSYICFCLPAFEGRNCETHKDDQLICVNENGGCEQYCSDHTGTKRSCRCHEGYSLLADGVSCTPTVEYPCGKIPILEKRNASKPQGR
Sequence of TF-fVII (P13726 33-295 partner): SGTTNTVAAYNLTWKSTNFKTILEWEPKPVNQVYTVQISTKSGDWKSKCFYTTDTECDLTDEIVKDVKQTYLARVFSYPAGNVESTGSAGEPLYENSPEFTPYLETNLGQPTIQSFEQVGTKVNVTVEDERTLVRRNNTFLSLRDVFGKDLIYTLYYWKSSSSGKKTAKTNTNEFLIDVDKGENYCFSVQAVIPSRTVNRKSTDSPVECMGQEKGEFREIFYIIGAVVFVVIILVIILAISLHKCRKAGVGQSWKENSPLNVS
Sequence of Angiotensin converting enzyme 2 (ACE2) (Q9BYF1 18-805, species assumed): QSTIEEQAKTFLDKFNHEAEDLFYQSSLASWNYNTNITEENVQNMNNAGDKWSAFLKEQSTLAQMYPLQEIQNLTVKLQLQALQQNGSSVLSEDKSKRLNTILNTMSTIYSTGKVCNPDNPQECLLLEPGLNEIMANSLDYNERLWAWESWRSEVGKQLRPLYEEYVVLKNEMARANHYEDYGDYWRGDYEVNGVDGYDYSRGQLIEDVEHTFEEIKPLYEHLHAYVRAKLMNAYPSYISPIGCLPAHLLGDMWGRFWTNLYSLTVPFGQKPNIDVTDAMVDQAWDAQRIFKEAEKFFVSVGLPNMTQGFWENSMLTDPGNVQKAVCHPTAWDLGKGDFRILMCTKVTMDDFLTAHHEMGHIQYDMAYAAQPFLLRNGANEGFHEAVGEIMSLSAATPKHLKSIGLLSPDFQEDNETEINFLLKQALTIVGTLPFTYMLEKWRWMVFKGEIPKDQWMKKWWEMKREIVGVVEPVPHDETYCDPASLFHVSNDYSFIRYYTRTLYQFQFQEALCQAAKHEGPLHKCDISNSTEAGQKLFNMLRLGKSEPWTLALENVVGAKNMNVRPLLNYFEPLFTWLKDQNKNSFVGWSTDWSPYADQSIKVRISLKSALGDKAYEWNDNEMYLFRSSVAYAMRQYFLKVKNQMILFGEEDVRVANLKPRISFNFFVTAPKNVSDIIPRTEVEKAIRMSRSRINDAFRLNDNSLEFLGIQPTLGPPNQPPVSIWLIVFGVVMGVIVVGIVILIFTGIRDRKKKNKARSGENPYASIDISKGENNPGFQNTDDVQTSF

SRFKVWWAAF: at Human kallikrein 2, the IC50 is 3.4 µM.
In the case of CLRLLQWFLWAC, on DNase II, the Ki was 0.2 µM.
Turning to aprotinin, the “thrombin formation in human plasma” value in data set [1] is “had no effect”. In addition, the “lag time of thrombin activation” value in data set [1] (5 μM inhibitor concentration) is listed as “more prolonged by aprotinin than by the small molecule inhibitor”. For the same compound, in data set [2], the adverse effects entry is “anaphylaxis and renal toxicity”. The IC50 in data set [3] was found to be 5 µM.
Consider `CC(C)C[C@@H]1NC(=O)[C@H](C)NC(=O)[C@H](CCC(=O)O)NC(=O)[C@H](CC(=O)O)NC(=O)[C@H](C)NC(=O)[C@@H]2CCCN2C(=O)[C@@H]2CSCc3cc(cc(c3)CSC[C@@H](C(=O)NCC(N)=O)NC1=O)CSC[C@H](NC(=O)[C@H](C)N)C(=O)N[C@@H](CO)C(=O)N[C@@H](CC(=O)O)C(=O)N[C@@H](CCCNC(=N)N)C(=O)N[C@@H](Cc1ccccc1)C(=O)N[C@@H](CCCNC(=N)N)C(=O)N[C@@H](CC(N)=O)C(=O)N2` [PK15] (H-ACSDRFRNCPADEALCG-NH2; linker 2-9-16 via TBMB (inferred)), for which the “inhibition of human thrombin” value against human thrombin was “did not inhibit”. Besides, the “thrombin formation in human plasma” value in data set [1] is “delayed thrombin formation”. Moreover, the “lag time of thrombin generation compared to control sample (FIG. 8)” value in data set [1] (5, 50, 500 or 5000 nM) is on record as “dose-dependent prolongation of lag time”. At mouse plasma kallikrein, the “inhibition of mouse plasma kallikrein” value was “did not inhibit”. Further, the “inhibition of human factor XIa” value against factor XIa is given as “did not inhibit”. The “cleavage of a peptide bond on incubation with kallikrein” value on plasma kallikrein [4] (24 h at 37° C.) was 90%. In addition, the “state after prolonged incubation with human plasma kallikrein” value at plasma kallikrein [4] (cleaved in one of the loops) is “remained intact and active”. Further, at plasma kallikrein [5], the Ki came out at 0.0015 µM and the IC50 was found to be 1.7 nM. Further, in [3], the “interruption of intrinsic coagulation pathway / contact activation in human plasma ex vivo” value is “efficiently interrupted the intrinsic coagulation pathway” and the IC50 was determined as 0.16 µM. The “activation of factor XIIa and plasma kallikrein in human plasma” value in data set [3] (5 μM, plasma of three donors) was “essentially be suppressed”.
Regarding KCCYSL, the Ki on ErbB-2 is 30 µM.
On to CQPHPGQTC, for which the IC50 at Pancreatic lipase was 16 µM.
As to GDYSHCSPLRYYPWWKCTYPDP, in data set [6], the Ki is 0.0028 µM.
On to `CC(C)[C@@H]1NC(=O)[C@H](CCCNC(=N)N)NC(=O)[C@@H]2CSCc3cc(cc(c3)CSC[C@@H](C(=O)NCC(N)=O)NC(=O)[C@@H]3CCCN3C(=O)[C@H]([C@@H](C)O)NC(=O)[C@H](Cc3c[nH]c4ccccc34)NC(=O)[C@H](CC(N)=O)NC1=O)CSC[C@H](NC(=O)[C@H](C)N)C(=O)NCC(=O)N[C@@H]([C@@H](C)O)C(=O)NCC(=O)N[C@@H](CCC(=O)O)C(=O)NCC(=O)N[C@@H](CCCNC(=N)N)C(=O)N2` [PK13] (H-ACGTGEGRCRVNWTPCG-NH2; linker 2-9-16 via TBMB), for which the IC50 at plasma kallikrein [5] amounted to 39.1 nM.
As to EEWEVLCWTWETCER, the IC50 on TF-fVII is 0.0015 µM.
`CC[C@H](C)[C@@H]1NC(=O)[C@H](CCC(=O)O)NC(=O)[C@H]([C@@H](C)CC)NC(=O)[C@@H]2CCCN2C(=O)[C@@H]2CSCc3cc(cc(c3)CSC[C@@H](C(=O)NCC(N)=O)NC(=O)[C@@H]3CCCN3C(=O)[C@H](Cc3ccccc3)NC1=O)CSC[C@H](NC(=O)[C@H](C)N)C(=O)N[C@@H](CO)C(=O)N[C@@H]([C@@H](C)O)C(=O)N[C@@H](CCC(=O)O)C(=O)N[C@@H](CCCNC(=N)N)C(=O)N[C@@H](CCCNC(=N)N)C(=O)N[C@@H](Cc1ccc(O)cc1)C(=O)N2` [PK4] (H-ACSTERRYCPIEIFPCG-NH2; linker 2-9-16 via TBMB): the IC50 at plasma kallikrein [5] was 33 nM.
Turning to CVHSPNREC, the IC50 at Beta-lactamase was 9 µM.
As for CCFSWRCRC, at Chymotrypsin, the Ki was 1 µM.
Consider `CSCC[C@@H]1NC(=O)[C@H](CC(C)C)NC(=O)[C@H](CC(=O)O)NC(=O)[C@H](CCC(=O)O)NC(=O)[C@H](Cc2ccc(O)cc2)NC(=O)[C@@H]2CSCc3cc(cc(c3)CSC[C@@H](C(=O)NCC(N)=O)NC(=O)[C@H](Cc3c[nH]c4ccccc34)NC1=O)CSC[C@H](NC(=O)[C@H](C)N)C(=O)N[C@@H](C)C(=O)N1CCC[C@H]1C(=O)N[C@@H](Cc1c[nH]c3ccccc13)C(=O)N[C@@H](CCCNC(=N)N)C(=O)N[C@@H]([C@@H](C)O)C(=O)N[C@@H](C)C(=O)N2` [PK6] (H-ACAPWRTACYEDLMWCG-NH2; linker 2-9-16 via TBMB), for which, on plasma kallikrein [5], the IC50 amounted to 21.2 nM.
On to CPAYSRYLDC, for which the Ki in data set [7] was 0.4 µM.
On to CSWRGLENHRMC, for which the Ki in [8] was 6.7 µM.
YDFYWW: on Urease, the IC50 is 30 µM.
